{
  "source": "patent US7972814B2",
  "about": "“Antimicrobial polypeptides from Pseudoplectania nigrella” (Novozymes Adenivro Biotech A/S, priority 2001, dated 2011)",
  "key": {"E. coli": {"tested_on": "E. coli", "assay": "Growth inhibition of E. coli upon induction of endogenous Plectasin expression (suicide expression system)", "type": "cell-based", "protocol": "In order to evaluate whether E. coli was growth inhibited in liquid media upon induction of endogenous Plectasin expression, the following experiment was conducted as disclosed in the examples of international patent application WO 00/73433. Briefly, fresh overnight cultures of cells containing either pDRS-18-plectasin, pDR-18-plectasin, pHH or pHHA plasmid were diluted 300-fold into 150 micro liter of LB or LB containing 0.1% arabinose in a microtiter plate and incubated at 37 degrees Celsius with vigorous shaking. The growth curve was monitored by measuring OD450 at regular intervals using an ELISA reader."}, "Bacillus subtilis": {"tested_on": "Bacillus subtilis", "assay": "Antimicrobial activity by radial diffusion assay", "type": "cell-based", "protocol": "A modified version of a previously published protocol has been applied in the detection of antimicrobial activity (Lehrer et al., (1991) Ultrasensitive assays for endogenous antimicrobial polypeptides J Immunol Methods 137: 167-173). Target bacteria (10^6 colony forming units (CFU)) were added to 10 ml of underlay agarose (1% low electro-endosmosis agarose, 0.03% Trypticase soy broth, 10 mM sodium phosphat, pH 7.4, 37 degrees Celsius). Suspension was solidified on an INTEGRID Petri Dish (Becton Dickinson Labware, N.J.). A 3 mm Gel Puncher was used to make holes in the underlay agarose (Amersham Pharmacia Biotech, Sweden). Samples were added to the holes and incubated at 37 degrees Celsius, 3 hours. An overlay was poured on top and the plate was incubated overnight (LB media, 7.5% Agar). Antimicrobial activity was seen as bacterial clearing zones around the wells. Living cells was counterstained by adding 10 ml, 0.2 mM MTT (3-(4,5-Dimethylthiazol-2-yl)-2,5-diphenyltetrazolium bromide Thiazolyl blue). All standard protocols has been described elsewhere (Sambrook, Fritsch, and Maniatis, 1989).\nTo evaluate the anti-microbial activity of Plectasin, fermentation broths of recombinant Aspergillus oryzae were applied in 2-fold serial dilutions in a radial diffusion assay (described above). […]\nThe supernatants described above were analyzed in a radial diffusion assay as described in Example 5. […]"}},
  "data": [
    {"substance": "Plectasin", "values": [
      {"measurement": "inhibition of cell growth", "setting": "E. coli; Plectasin directed to the periplasm", "value": 41, "unit": "%"},
      {"measurement": "effect on cell growth", "setting": "E. coli; Plectasin expressed in the cytoplasm", "value": "did not affect cell growth"},
      {"measurement": "increase in antimicrobial activity of the peptide", "setting": "Bacillus subtilis; produced in E. coli Origami-DE3 (inclusion bodies) versus the earlier E. coli host", "value": "5-10 fold"},
      {"measurement": "largest clearing zone", "setting": "Bacillus subtilis; undiluted fermentation broth of recombinant Aspergillus oryzae", "value": 15, "unit": "mm"}
    ]}
  ]
}
